Laboratory results as given in the supplement of paper PMC11368000.

Legend:
Conditions in all cases: exposure time: 90 min
[1] = system: 1118 (donor line of iPSC-derived cardiomyocytes); assay: POD (EC95) for loss of peak frequency (asystole) vs vehicle; higher = less potent (higher point of departure)
In short: (§1)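 Points of departure specific to each donor were obtained from hierarchical Bayesian Hill fits to vehicle-normalised beat frequency, decay-to-rise ratio or peak frequency. Thresholds were set at 5% change, or 95% loss in the case of peak frequency. The cells were human iPSC-derived cardiomyocytes from 16 donors, exposed for 90 min at 37 °C to 0.1, 1, 10 and 100 µM (final, 0.5% DMSO), with Ca2+ flux read on a FLIPR Tetra before and after exposure.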

[2] = system: 1309 (donor line of iPSC-derived cardiomyocytes); assay: as above
In short: as §1

[3] = system: 1392 (donor line of iPSC-derived cardiomyocytes); assay: as above
In short: as §1

[4] = system: 1516 (donor line of iPSC-derived cardiomyocytes); assay: as above
In short: as §1

[5] = system: 1518 (donor line of iPSC-derived cardiomyocytes); assay: as above
In short: as §1

[6] = system: 1531 (donor line of iPSC-derived cardiomyocytes); assay: as above
In short: as §1

[7] = system: 1565 (donor line of iPSC-derived cardiomyocytes); assay: as above
In short: as §1

[8] = system: 1118; assay: POD (EC05) for decrease in beat frequency (negative chronotrope) vs vehicle; higher = less potent (higher point of departure)
Description: (§2)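 Human iPSC-derived cardiomyocytes from 16 donors were exposed for 90 min at 37 °C to each PFAS at 0.1, 1, 10 and 100 µM in 0.5% DMSO, 384-well plates. Kinetic Ca2+ flux (FLIPR) and Hoechst nuclei counts were normalised to vehicle wells and fitted with a hierarchical Bayesian Hill model to give donor-specific PODs: EC05 for beat-rate increase or decrease and for decay-to-rise ratio increase (QT proxy), EC95 for peak-frequency loss (asystole), EC10 for total cell number loss. 0.03 µM is the lower bound.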

[9] = system: 11235 (donor line of iPSC-derived cardiomyocytes); assay: as above
Description: as §2

[10] = system: 1309; assay: as above
Description: as §2

[11] = system: 1368 (donor line of iPSC-derived cardiomyocytes); assay: as above
Description: as §2

[12] = system: 1516; assay: as above
Description: as §2

[13] = system: 1518; assay: as above
Description: as §2

[14] = system: 1531; assay: as above
Description: as §2

[15] = system: 1535 (donor line of iPSC-derived cardiomyocytes); assay: as above
Description: as §2

[16] = system: 1565; assay: as above
Description: as §2

[17] = system: 20032 (donor line of iPSC-derived cardiomyocytes); assay: as above
Description: as §2

[18] = system: 20084 (donor line of iPSC-derived cardiomyocytes); assay: as above
Description: as §2

[19] = system: 30145 (donor line of iPSC-derived cardiomyocytes); assay: as above
Description: as §2

[20] = system: 30171 (donor line of iPSC-derived cardiomyocytes); assay: as above
Description: as §2

SMILES | POD vs vehicle [1] [µM] | POD vs vehicle [2] [µM] | POD vs vehicle [3] [µM] | POD vs vehicle [4] [µM] | POD vs vehicle [5] [µM] | POD vs vehicle [6] [µM] | POD vs vehicle [7] [µM] | POD vs vehicle [8] [µM] | POD vs vehicle [9] [µM] | POD vs vehicle [10] [µM] | POD vs vehicle [11] [µM] | POD vs vehicle [12] [µM] | POD vs vehicle [13] [µM] | POD vs vehicle [14] [µM] | POD vs vehicle [15] [µM] | POD vs vehicle [16] [µM] | POD vs vehicle [17] [µM] | POD vs vehicle [18] [µM] | POD vs vehicle [19] [µM] | POD vs vehicle [20] [µM]
O=C(O)C(F)(F)OC(F)(F)C(F)(F)OC(F)(F)C(=O)O [Perfluoro-3,6-dioxaoctane-1,8-dioic_acid] | > 100 | > 100 | > 100 | > 100 | > 100 | > 100 | > 100 | > 100 | > 100 | > 100 | > 100 | > 100 | > 100 | > 100 | > 100 | > 100 | > 100 | > 100 | > 100 | > 100
O=C([O-])C(F)(F)C(F)(F)C(F)(F)C(F)(F)C(F)(F)C(F)(F)C(F)(F)F.[NH4+] [Ammonium_perfluorooctanoate] | > 100 | > 100 | > 100 | > 100 | > 100 | > 100 | > 100 | 11 | 4.51 | > 100 | > 100 | 58.4 | 87.3 | 18.9 | 43.5 | > 100 | 79.9 | > 100 | > 100 | 7.16
OCC(F)(F)C(F)(F)C(F)(F)C(F)F [1H,1H,5H-Perfluoropentanol] | 86.3 | > 100 | > 100 | > 100 | > 100 | > 100 | > 100 | 22.8 | > 100 | > 100 | > 100 | > 100 | > 100 | 45.9 | > 100 | > 100 | > 100 | 35.1 | > 100 | > 100
O=C(O)C(F)(F)C(F)(F)OC(F)(F)F [Perfluoro-3-methoxypropanoic_acid] | > 100 | > 100 | > 100 | > 100 | > 100 | > 100 | > 100 | > 100 | > 100 | > 100 | > 100 | > 100 | > 100 | > 100 | > 100 | > 100 | > 100 | > 100 | > 100 | > 100
O=C(O)C(F)(F)C(F)(F)C(F)(F)C(F)(F)C(F)(F)C(F)(F)C(F)(F)C(F)(F)Cl [9-Chloro-perfluorononanoic_acid] | 84.3 | > 100 | > 100 | 90.9 | > 100 | > 100 | > 100 | 13.1 | 2.23 | 84.3 | > 100 | 14.9 | > 100 | > 100 | 39.9 | > 100 | 44.8 | > 100 | > 100 | 6.24
